Patent publication US8026219B2, “Antimicrobial linear peptides” (Universitat de Girona, priority 2006, dated 2011)
Residues, ends and D or L forms follow the SMILES beside them. No end group written: not given here. *: point of attachment. Bz = O=C(c1ccccc1)*

Key:
[1] = test system: erythrocytes from fresh human blood; conditions: 5% erythrocytes, 1 h at 37° C., relative to 200 μM melittin; for % Haemolysis 50 μM: 50 μM peptide; for % Haemolysis 150 μM: 150 μM peptide; for % Haemolysis 250 μM: 250 μM peptide
Method: A description of the methodology used to determine the haemolytic activity is found in Oren et al, Biochemistry, 2000, 39, 6103-6114, and in Raguse et al., J. Am. Chem. Soc., 2002, 124, 12774-12785.
The haemolytic activity of the peptides of the invention was evaluated by determining the release of haemoglobin which is produced on placing in contact a solution of the peptides with a suspension of erythrocytes 5% by volume, from fresh human blood.
The blood was collected aseptically using a Vactainer® K2E system (Belliver, Great Britain) with EDTA and it was stored at 4° C. for a period lower than 2 hours.
The blood was centrifuged at 6000 g for 5 minutes to separate the erythrocytes. There were washed three times with TRIS buffer (10 mM TRIS, 150 mM NaCl, pH 7.2) and they were resuspended in TRIS buffer until obtaining a suspension which contained 10% by volume of erythrocytes.
The peptides were solubilized in TRIS buffer until a final concentration of 100, 300 and 500 μM
The replicas were used for each peptide and concentration.
65 μl of 10% erythrocyte suspension was mixed with 65 μl of the peptide solution in each well of a 96-well plate (Micro-Amp®, Applied Biosystems, USA) (5% by volume of erythrocytes) and the mixture was incubated for 1 h at 37° C. under stirring. In this way, the erythrocyte suspensions were subjected to peptide concentrations of 50, 150 and 250 μM.
Next, the plates were centrifuged at 3500 g during 10 minutes and aliquots were transferred of 80 μl of supernatant to microplates with 100 wells (Bioscreen), which were diluted with 80 μl of milli-Q water.
The degree of haemolysis was determined from the absorbance at 540 nm with a Bioscreen plate reader.
The complete positive haemolysis control was determined in a TRIS buffer solution which contained 200 μM melittin (Sigma-Aldrich, Spain)
The percentage of haemolysis (H) was determined using the following equation: H=100×[Op−Ob)/(Om−Ob)]
Where OP as the optical density measured for a determined peptide concentration, Ob was the optical density of the buffer solution, and Om was the optical density for the positive control with melittin.

[2] = test system: Erwinia amylovora PMV6076; assay: Minimum inhibitory concentration (MIC), microbial growth by optical density; type: cell-based; conditions: 48 h incubation at 25° C., TSB medium
Method: (§1) Each experiment was performed twice.

[3] = test system: Pseudomonas syringae EPS94; assay: as above; type: cell-based; conditions: 48 h incubation at 25° C., TSB medium
Method: as §1

[4] = test system: Xanthomonas vesicatori 2133-2; assay: as above; conditions: 48 h incubation at 25° C., TSB medium
Method: All the bacteria were stored at a temperature of −80° C. in Luria-Bertani (LB) medium supplemented with 20% glycerine in volume/volume.
In all cases they were resuspended in sterile water to obtain a suspension adjusted to an absorbance of 0.2 to 60 nm, which approximately corresponds to 10^8 colony forming units.
To determine the minimum inhibitory concentration (MIC), the peptides were solubilized in milli-Q sterile water until a final concentration of 1000 μM and they were filtered through a 0.22 μm pore size filter.
Dilutions of the peptides of the invention were made to obtained solutions at the concentrations of 750, 500, 250, 200, 150, 125, 100, 75, 50 and 25 μM.
20 μl of each dilution were mixed with 20 μl of the suspension of the corresponding bacterial indicator, and 160 μl of the TSB (Trypticase Soy Broth) liquid medium until a total volume of 200 μl in each well of a microplate.
Two replicas were carried out for each strain, concentration and peptide under study.
The positive controls contained water instead of peptide, and the negative controls contained the peptides without the bacterial suspension.
The microbial growth was determined automatically by optical density at 600 nm using the Microbiology Analyser Bioscreen C (Labsystems)
The microplates were incubated at 25° C. for 48 hours with stirring for 20 seconds before measuring the absorbance every hour. Each experiment was performed twice.

Proteinase K [5] = target: T1, Proteinase K (Parengyodontium album, UniProt P06873); assay: in vitro; conditions: Proteinase K (1 μg/ml), pH 7.6
T1 sequence (P06873 106-384): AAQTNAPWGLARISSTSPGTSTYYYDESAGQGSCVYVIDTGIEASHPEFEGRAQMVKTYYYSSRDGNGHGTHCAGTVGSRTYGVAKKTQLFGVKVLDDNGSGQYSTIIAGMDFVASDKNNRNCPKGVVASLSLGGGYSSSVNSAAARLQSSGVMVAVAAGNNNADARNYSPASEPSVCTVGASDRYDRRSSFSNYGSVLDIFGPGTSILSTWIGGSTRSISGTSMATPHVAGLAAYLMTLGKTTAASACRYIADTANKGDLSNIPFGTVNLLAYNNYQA
Method: (§2) The degradation is expressed as the percentage of peptide degraded after a determined time interval calculated from the decrease in the area of the peak of the native peptide by HPLC.
(§3) The stability of the peptides of the invention to degradation by proteases is determined by a peptide digestion test by Proteinase K (Sigma-Aldrich Corporation, Madrid, Spain).
(§4) A solution of 50 μg/ml of the peptide and 1 μg/ml of Proteinase K in 100 mM TRIS buffer at pH 7.6 was used, at ambient temperature.
(§5) The progress of the peptide excision was determined chromatographically at times between 5 and 45 minutes. To do this a reverse phase C18 column was used (Kromasil, 4.6×40 mm; 3.5 μm particle size), and linear gradients from 0.98:0.02 to 0:1 during 7 min performing the detection by absorbance in ultraviolet light at 220 nm.

Proteinase K [6] = target: T1, Proteinase K; conditions: 45 minutes
Method: as §2, §3, §4, §5

CC[C@H](C)[C@H](NC(=O)[C@H](CCCCN)NC(=O)[C@H](CCCCN)NC(=O)[C@H](Cc1ccccc1)NC(=O)[C@H](CC(C)C)NC(=O)[C@H](CCCCN)NC(=O)[C@@H](N)CCCCN)C(=O)N[C@@H](CC(C)C)C(=O)N[C@@H](CCCCN)C(=O)N[C@H](C(=O)N[C@@H](CC(C)C)C(N)=O)C(C)C [BP015]
% Haemolysis 50 μM [1]: 0%
% Haemolysis 150 μM [1]: 16%
% Haemolysis 250 μM [1]: 45%
range of concentrations including the MIC, E. amylovora [2]: 5 to 7.5 µM
range of concentrations including the MIC, P. syringae [3]: 2.5 to 5 µM
range of concentrations including the MIC, X. vesicatoria [4]: >7.5 µM
metabolised at 0.75 h, 50 μg/ml (Proteinase K [5]): 100%

WKLFKKILKFL-NH2 [BP019]
% Haemolysis 50 μM [1]: 57%
% Haemolysis 150 μM [1]: 94%
% Haemolysis 250 μM [1]: 100%
range of concentrations including the MIC, E. amylovora [2]: 5 to 7.5 µM
range of concentrations including the MIC, P. syringae [3]: 5 to 7.5 µM
range of concentrations including the MIC, X. vesicatoria [4]: 2.5 to 5 µM
metabolised at 0.75 h, 50 μg/ml (Proteinase K [5]): 87%

CC[C@H](C)[C@H](NC(=O)[C@H](CCCCN)NC(=O)[C@H](CCCCN)NC(=O)[C@H](Cc1ccccc1)NC(=O)[C@H](CC(C)C)NC(=O)[C@H](CCCCN)NC(=O)[C@H](CCCCN)NC(=O)c1ccccc1)C(=O)N[C@@H](CC(C)C)C(=O)N[C@@H](CCCCN)C(=O)N[C@@H](CCCCN)C(=O)N[C@@H](CC(C)C)C(N)=O [BP126]
% Haemolysis 50 μM [1]: 2%
% Haemolysis 150 μM [1]: 14%
% Haemolysis 250 μM [1]: 24%
stability to degradation by proteases relative to the peptide of the Comparative example (Proteinase K [6]): two times more stable
range of concentrations including the MIC, E. amylovora [2]: 5 to 7.5 µM
range of concentrations including the MIC, P. syringae [3]: 2.5 to 5 µM
range of concentrations including the MIC, X. vesicatoria [4]: 2.5 to 5 µM
metabolised at 0.75 h, 50 μg/ml (Proteinase K [5]): 53%

CC[C@H](C)[C@H](NC(=O)[C@H](CCCCN)NC(=O)[C@H](CCCCN)NC(=O)[C@H](Cc1ccccc1)NC(=O)[C@H](CC(C)C)NC(=O)[C@H](CCCCN)NC(=O)[C@@H](N)CCCCN)C(=O)N[C@@H](CC(C)C)C(=O)N[C@@H](CCCCN)C(=O)N[C@@H](Cc1ccccc1)C(=O)N[C@@H](CC(C)C)C(N)=O [BP076]
% Haemolysis 50 μM [1]: 3%
% Haemolysis 150 μM [1]: 34%
% Haemolysis 250 μM [1]: 65%
stability to degradation by proteases relative to the peptide of the Comparative example (Proteinase K [6]): two times more stable
range of concentrations including the MIC, E. amylovora [2]: 2.5 to 5 µM
range of concentrations including the MIC, P. syringae [3]: 2.5 to 5 µM
range of concentrations including the MIC, X. vesicatoria [4]: 2.5 to 5 µM
metabolised at 0.75 h, 50 μg/ml (Proteinase K [5]): 49%

CC[C@H](C)[C@H](NC(=O)[C@H](CCCCN)NC(=O)[C@H](CCCCN)NC(=O)[C@H](Cc1ccccc1)NC(=O)[C@H](CC(C)C)NC(=O)[C@H](CCCCN)NC(=O)[C@@H](N)Cc1c[nH]c2ccccc12)C(=O)N[C@@H](CC(C)C)C(=O)N[C@@H](CCCCN)C(=O)N[C@@H](Cc1ccc(O)cc1)C(=O)N[C@@H](CC(C)C)C(N)=O [BP020]
% Haemolysis 50 μM [1]: 78%
% Haemolysis 150 μM [1]: 77%
% Haemolysis 250 μM [1]: 72%
range of concentrations including the MIC, E. amylovora [2]: 2.5 to 5 µM
range of concentrations including the MIC, P. syringae [3]: 2.5 to 5 µM
range of concentrations including the MIC, X. vesicatoria [4]: 2.5 to 5 µM
metabolised at 0.75 h, 50 μg/ml (Proteinase K [5]): 85%

LKLFKKILKVL-NH2 [BP033]
% Haemolysis 50 μM [1]: 4%
% Haemolysis 150 μM [1]: 38%
% Haemolysis 250 μM [1]: 68%
range of concentrations including the MIC, E. amylovora [2]: 5 to 7.5 µM
range of concentrations including the MIC, P. syringae [3]: 5 to 7.5 µM
range of concentrations including the MIC, X. vesicatoria [4]: >7.5 µM
metabolised at 0.75 h, 50 μg/ml (Proteinase K [5]): 100%

CC[C@H](C)[C@H](NC(=O)[C@H](CCCCN)NC(=O)[C@H](CCCCN)NC(=O)[C@H](Cc1ccccc1)NC(=O)[C@H](CC(C)C)NC(=O)[C@H](CCCCN)NC(=O)[C@H](CCCCN)NS(=O)(=O)c1ccc(C)cc1)C(=O)N[C@@H](CC(C)C)C(=O)N[C@@H](CCCCN)C(=O)N[C@@H](CCCCN)C(=O)N[C@@H](CC(C)C)C(N)=O [BP125]
% Haemolysis 50 μM [1]: 2%
% Haemolysis 150 μM [1]: 8%
% Haemolysis 250 μM [1]: 23%
range of concentrations including the MIC, E. amylovora [2]: >7.5 µM
range of concentrations including the MIC, P. syringae [3]: 2.5 to 5 µM
range of concentrations including the MIC, X. vesicatoria [4]: 2.5 to 5 µM
metabolised at 0.75 h, 50 μg/ml (Proteinase K [5]): 67%

CC[C@H](C)[C@H](NC(=O)[C@H](CCCCN)NC(=O)[C@H](CCCCN)NC(=O)[C@H](Cc1ccccc1)NC(=O)[C@H](CC(C)C)NC(=O)[C@H](CCCCN)NC(=O)[C@H](CCCCN)NC(C)=O)C(=O)N[C@@H](CC(C)C)C(=O)N[C@@H](CCCCN)C(=O)N[C@@H](Cc1ccccc1)C(=O)N[C@@H](CC(C)C)C(N)=O [BP077]
% Haemolysis 50 μM [1]: 6%
% Haemolysis 150 μM [1]: 40%
% Haemolysis 250 μM [1]: 81%
range of concentrations including the MIC, E. amylovora [2]: 5 to 7.5 µM
range of concentrations including the MIC, P. syringae [3]: 5 to 7.5 µM
range of concentrations including the MIC, X. vesicatoria [4]: <2.5 µM
metabolised at 0.75 h, 50 μg/ml (Proteinase K [5]): 84%

CC[C@H](C)[C@H](NC(=O)[C@H](CCCCN)NC(=O)[C@H](CCCCN)NC(=O)[C@H](Cc1ccccc1)NC(=O)[C@H](CC(C)C)NC(=O)[C@H](CCCCN)NC(=O)[C@H](Cc1c[nH]c2ccccc12)NC(=O)c1ccccc1)C(=O)N[C@@H](CC(C)C)C(=O)N[C@@H](CCCCN)C(=O)N[C@H](C(=O)N[C@@H](CC(C)C)C(N)=O)C(C)C [BP010] (Bz-WKLFKKILKVL-NH2)
% Haemolysis 50 μM [1]: 77%
% Haemolysis 150 μM [1]: 77%
% Haemolysis 250 μM [1]: 76%
range of concentrations including the MIC, E. amylovora [2]: >7.5 µM
range of concentrations including the MIC, P. syringae [3]: >7.5 µM
range of concentrations including the MIC, X. vesicatoria [4]: <2.5 µM
metabolised at 0.75 h, 50 μg/ml (Proteinase K [5]): 100%
